Patent US20140142094A1, “KINASE INHIBITORS” (ICAHN SCHOOL OF MEDICINE AT MOUNT SINAI, priority 2011, published 2014)

How the values were obtained:
[1] = test system: K562 (chronic myelogenous leukemia; leukemia cell line +ve for Bcr-Abl); assay: Cytotoxicity on K562 cancer cell line; format: cell-based; details: Homo sapiens; K562 cells, 96 h treatment
Experimental: (§1) The effect of the compounds described herein on tumor cells was determined by the assay described by Latham et al., Oncogene 12:827-837 (1996). Tumor cells K562 (chronic myelogenous leukemia; leukemia cell line +ve for Bcr-Abl) or DU145 (prostate cancer) were plated in 12-well dishes at a cell density of 2.5×10^4 cells per well. The plated cells were treated 24h. later with a DMSO solution of a compound as described herein at multiple concentrations ranging from 0.01 μM to 100 μM. The plates were examined 96 h. later under an inverted microscope, Olympus CK-2 using a 10× objective, and compound activity was noted by physical observation. When necessary, the total number of viable cells was determined by trypsinizing the wells and counting the number of viable cells, as determined by trypan blue exclusion, using a hemacytometer.

[2] = test system: DU145 (prostate cancer); assay: Cytotoxicity on DU145 cancer cell line; format: cell-based; details: Homo sapiens, DU-145; DU145 cells, 96 h treatment
Experimental: as §1

SMILES	IC50 [1]	IC50 [2]	melting point
CC(=O)Oc1ccc(/C=C2/Sc3nc(N4CCN(c5ccccn5)CC4)ncc3NC2=O)cc1 [Compound 1i, (E)-4-((6-Oxo-2-(4-(pyridin-2-yl)piperazin-1-yl)-5H-pyrimido[4,5-b][1,4]thiazin-7(6H)-ylidene)methyl)phenyl acetate]	1 to 10 µM	1 to 10 µM	
O=C1Nc2cnc(Nc3ccc(N4CCOCC4)cc3)nc2S/C1=C/c1ccc([N+](=O)[O-])cc1 [Compound 1k, (E)-2-((4-Morpholinophenyl)amino)-7-(4-nitrobenzylidene)-5H-pyrimido[4,5-b][1,4]thiazin-6(7H)-one]	50 to 100 µM	50 to 100 µM	302 to 304 °C
CN1CCN(c2ccc(Nc3ncc4c(n3)S/C(=C/c3ccc(C#N)cc3)C(=O)N4)cc2)CC1 [Compound 1n, (E)-4-((2-((4-(4-Methylpiperazin-1-yl)phenyl)amino)-6-oxo-5H-pyrimido[4,5-b][1,4]thiazin-7(6H)-ylidene)methyl)benzonitrile]	< 1 µM	< 1 µM	274 to 276 °C
CN1CCN(c2ccc(Nc3ncc4c(n3)S/C(=C/c3ccc(F)cc3)C(=O)N4)cc2)CC1 [Compound 1a, (E)-7-(4-Fluorobenzylidene)-2-(4-(4-methylpiperazin-1-yl)phenylamino)-5H-pyrimido[4,5-b][1,4]thiazin-6(7H)-one]	1 to 10 µM	1 to 10 µM	
COc1ccc(/C=C2/Sc3nc(N(C(C)=O)c4ccc(N5CCN(C)CC5)cc4)ncc3NC2=O)cc1[N+](=O)[O-] [Compound 1d, (E)-N-(7-(4-methoxy-3-nitrobenzylidene)-6-oxo-6,7-dihydro-5H-pyrimido[4,5-b][1,4]thiazin-2-yl)-N-(4-(4-methylpiperazin-1-yl)phenyl)acetamide]	1 to 10 µM	1 to 10 µM	
O=C1Nc2cnc(N3CCN(c4ncccn4)CC3)nc2S/C1=C/c1ccc([N+](=O)[O-])cc1 [Compound 1j, (E)-7-(4-Nitrobenzylidene)-2-(4-(pyrimidin-2-yl)piperazin-1-yl)-5H-pyrimido[4,5-b][1,4]thiazin-6(7H)-one]	50 to 100 µM	25 to 50 µM	
CN1CCN(c2ccc(Nc3ncc4c(n3)SCC(=O)N4)cc2)CC1 [Compound 4a, 2-(4-(4-methylpiperazin-1-yl)phenylamino)-5H-pyrimido[4,5-b][1,4]thiazin-6(7H)-one]	1 to 10 µM	10 to 25 µM	
CN1CCN(c2ccc(Nc3ncc4c(n3)S/C(=C/c3ccc(N)cc3)C(=O)N4)cc2)CC1 [Compound 1h, (E)-7-(4-Aminobenzlidene)-2-(4-(4-methylpiperazin-1-yl)phenylamino)-5H-pyrimido[4,5-b][1,4]thiazin-6(7H)-one]	< 1 µM	1 to 10 µM	
CC(=O)N(c1ccc(N2CCN(C)CC2)cc1)c1ncc2c(n1)S/C(=C/c1cn(C(C)=O)c3ccccc13)C(=O)N2 [Compound 1g, (E)-N-(7-((1-Acetyl-1H-indol-3-yl)methylene)-6-oxo-6,7-dihydro-5H-pyrimido[4,5-b][1,4]thiazin-2-yl)-N-(4-(4-methylpiperazin-1-yl)phenyl)acetamide]	1 to 10 µM	1 to 10 µM	
CC(=O)N(c1ccc(N2CCN(C)CC2)cc1)c1ncc2c(n1)S/C(=C/c1ccc(C(=O)O)cc1)C(=O)N2 [Compound 1l, (E)-4-((2-(N-(4-(4-Methylpiperazin-1-yl)phenyl)acetamido)-6-oxo-5H-pyrimido[4,5-b][1,4]thiazin-7(6H)-ylidene)methyl)benzoic acid]	50 to 100 µM	50 to 100 µM	326 to 330 °C
CC(=O)Oc1ccc(/C=C2/Sc3nc(Nc4ccc(N5CCN(C)CC5)cc4)ncc3NC2=O)cc1 [Compound 1c, (E)-4-((2-(4-(4-Methylpiperazin-1-yl)phenylamino)-6-oxo-5H-pyrimido[4,5-b][1,4]thiazin-7(6H)-ylidene)methyl)phenyl acetate]	1 to 10 µM	1 to 10 µM	
O=C1CSc2nc(SCc3c(Cl)cccc3Cl)ncc2N1 [Compound 4d, 2-(2,6-Dichlorobenzylthio)-5H-pyrimido[4,5-b][1,4]thiazin-6(7H)-one]	25 to 50 µM	25 to 50 µM	242 to 244 °C
CN1CCN(c2ccc(Nc3ncc4c(n3)S/C(=C/c3ccc(O)cc3)C(=O)N4)cc2)CC1 [Compound 1q, (E)-7-(4-Hydroxybenzylidene)-2-((4-(4-methylpiperazin-1-yl)phenyl)amino)-5H-pyrimido[4,5-b][1,4]thiazin-6(7H)-one]	< 1 µM	< 1 µM	312 to 314 °C
CN1CCN(c2ccc(Nc3ncc4c(n3)S/C(=C/c3ccc(C(N)=O)cc3)C(=O)N4)cc2)CC1 [Compound 1p, (E)-4-((2-((4-(4-Methylpiperazin-1-yl)phenyl)amino)-6-oxo-5H-pyrimido[4,5-b][1,4]thiazin-7(6H)-ylidene)methyl)benzamide]	1 to 10 µM	1 to 10 µM	294 to 298 °C
O=C1Nc2cnc(N3CCN(c4ccccn4)CC3)nc2S/C1=C/c1ccc([N+](=O)[O-])cc1 [Compound 1e, (E)-7-(4-Nitrobenzylidene)-2-(4-(pyridin-2-yl)piperazin-1-yl)-5H-pyrimido[4,5-b][1,4]thiazin-6(7H)-one]	10 to 25 µM	1 to 10 µM	
CC(=O)N1CCN(c2ccc(Oc3ncc4c(n3)S/C(=C/c3ccc([N+](=O)[O-])cc3)C(=O)N4)cc2)CC1 [Compound 1f, (E)-2-(4-(4-Acetylpiperazin-1-yl)phenoxy)-7-(4-nitrobenzylidene)-5H-pyrimido[4,5-b][1,4]thiazin-6(7H)-one]	10 to 25 µM	10 to 25 µM	
CC1CCN(c2ccc(Nc3ncc4c(n3)S/C(=C/c3ccc([N+](=O)[O-])cc3)C(=O)N4)cc2)CC1 [Compound 1m, (E)-2-((4-(4-Methylpiperidin-1-yl)phenyl)amino)-7-(4-nitrobenzylidene)-5H-pyrimido[4,5-b][1,4]thiazin-6(7H)-one]	1 to 10 µM	1 to 10 µM	
CN1CCN(c2ccc(Nc3ncc4c(n3)S/C(=C/c3ccc(OCc5ccccc5)cc3)C(=O)N4)cc2)CC1 [Compound 1o, (E)-7-(4-(Benzyloxy)benzylidene)-2-((4-(4-methylpiperazin-1-yl)pheny)amino)-5H-pyrimido[4,5-b][1,4]thiazin-6(7H)-one]	< 1 µM	< 1 µM	238 to 240 °C
